# Patent publication US10370371B2, “Substituted pyrimidine Bmi-1 inhibitors” (PTC Therapeutics, Inc., priority 2013, dated 2019)
# Tested on: Bmi-1 protein
# Experiment: Sandwich ELISA Assay (Bmi-1 protein level in HT-1080 cells)
# Format: cell-based
# Description: Cell Seeding and Compound Treatment (Day 1):
# HT-1080 cells were seeded at 8000 cells/well (50 μL) in 96-well tissue culture plates. After the cells became adherent (3-4 hours), 2× diluted stocks of test compounds in 50 μL DMEM containing 1% DMSO (final DMSO concentration was 0.5%) were added and the plates were incubated at 37° C. under 5% CO2 for 40-48 hours.
# ELISA Plate First Antibody Preparation (Day 2):
# The First Antibody (Millipore Mouse, monoclonal to mouse Bmi-1, clone F6, catalog #05-637) diluted to 2 μg/mL in PBS was added (100 μL) to each well of a Nunc MaxiSorp 96-well ELISA plate. The plate was covered with a plate seal and allowed to stand overnight.
# Cell Lysate Preparation (Day 3):
# Fresh Lysis buffer (1×) was prepared on the day of the assay as follows: 1 mM EDTA, 150 mM NaCl, 0.5% Triton-X 100, 10 mM NaF, 20 mM B-Glycerophosphate, 1 mM DTT (in PBS, pH 7.2-7.4) and HALT protease inhibitor cocktail (1×) (Pierce #78410).
# Lysis Buffer (1×, 40 μL) was added to each well and the plate was shaken for 5-10 minutes on an orbital shaker to allow cell lysis, then diluent (1% BSA in PBS in 0.5% NP40) (100 μL) was added to each well.
# A standard curve was prepared at the following Bmi-1 concentrations: 8000, 4000, 2000, 1000, 500, 250, 125 and 0 pg/mL. The Bmi-1 Recombinant Protein Standard (Novus Biologicals PCGF4 Recombinant Protein (P01), catalog # H00000648-P01) used to prepare the standard curve was stored at −80° C. On first thaw, the Recombinant Protein Standard was diluted to 10 μg/μL in Blocking Buffer (1% BSA in PBS; BSA: Fisher Scientific Catalog #1600-100). Aliquots were taken and refrozen at −80° C. The aliquots may be kept at 4° C. and reused after first thaw, but only within 1-2 weeks. The Recombinant Protein Standard contains a GST-fusion tag that appears at approximately 70 Kda on Western Blot.
# The prepared ELISA plate was washed 3× with Wash Buffer (0.05% Tween-20 in PBS). The final wash was removed from the plate and the plate was blotted dry. Blocking Buffer (300 μL) (1% BSA in PBS) was added to each well. The plate was covered with a plate seal and incubated at room temperature for 1 hour. The blocked plate was washed 3× with Wash Buffer, then the final wash was removed and the plate was blotted dry. The previously prepared samples and standards were added (100 μL/well) and the plate was covered with a plate seal and incubated at 4° C. overnight.
# The prepared ELISA plate was removed from incubation and allowed to stand at room temperature for 30 minutes, then washed and blotted dry. The Second Antibody (Cell Signaling Rabbit anti-Bmi-1, Cat#2830) diluted to 1:600 in Blocking Buffer was added (100 μL) to each well, except as needed for background control wells. The plate was covered with a plate seal and incubated for 1.5 hrs at room temperature.
# The ELISA plate was washed and blotted dry as previously described. The Third Antibody (Cell Signaling HRP conjugated anti-rabbit IgG (CellSignaling, Cat#:7074) diluted to 1:300 in Blocking Buffer was added (100 μL) to each well, except as needed for background control wells. The plate was incubated for 1 hr at room temperature.
# The plate was washed and blotted dry, then a previously prepared TMB substrate (TMB substrate kit, Pierce catalog #34021) (prepared by mixing kit reagents 1:1) (100 μL) was added per well. The plate was incubated for 20-30 minutes at room temperature in the dark, then Stop Solution (2 M sulfuric acid in water) (50 μL) was added per well. The plates were read at OD450 (experimental) and OD570 (reference).
row,SMILES,EC50
1,"Cc1nc2ncccc2n1-c1nc(Nc2ccc(C(F)(F)F)cc2)nc(N)c1F [Cpd 62, 5-fluoro-6-(2-methyl-1H-imidazo[4,5-b]pyridin-1-yl)-N^2-[4-(trifluoromethyl)phenyl]pyrimidine-2,4-diamine]",100 to 3000 nM
2,"Nc1cc(-n2c(C3CC3)nc3cc(F)c(F)cc32)nc(Nc2ccc(C(F)(F)F)cc2)n1 [Cpd 64, 6-(2-cyclopropyl-5,6-difluoro-1H-benzimidazol-1-yl)-N^2-[4-(trifluoromethyl)phenyl]pyrimidine-2,4-diamine]",10 to 100 nM
3,"CCc1nc2cc(F)c(F)cc2n1-c1cc(N)nc(Nc2ccc(C(F)(F)F)cc2)n1 [Cpd 65, 6-(2-ethyl-5,6-difluoro-1H-benzimidazol-1-yl)-N^2-[4-(trifluoromethyl)phenyl]pyrimidine-2,4-diamine]",10 to 100 nM
4,"Nc1cc(-n2c(C3CC3)nc3cc(F)c(F)cc32)nc(Nc2ccc(OC(F)F)cc2)n1 [Cpd 66, 6-(2-cyclopropyl-5,6-difluoro-1H-benzimidazol-1-yl)-N^2-[4-(difluoromethoxy)phenyl]pyrimidine-2,4-diamine]",1 to 10 nM
5,"N#Cc1cc(-n2c(C3CC3)nc3cc(F)c(F)cc32)nc(Nc2ccc(C(F)(F)F)cc2)n1 [Cpd 67, 6-(2-cyclopropyl-5,6-difluoro-1H-benzimidazol-1-yl)-2-{[4-(trifluoromethyl)phenyl]amino}pyrimidine-4-carbonitrile]",100 to 3000 nM
6,"Cc1nc2cc(F)c(F)cc2n1-c1cc(C#N)nc(Nc2ccc(C(F)(F)F)cc2)n1 [Cpd 68, 6-(5,6-difluoro-2-methyl-1H-benzimidazol-1-yl)-2-{[4-(trifluoromethyl)phenyl]amino}pyrimidine-4-carbonitrile]",100 to 3000 nM
7,"Nc1cc(-n2c(C(F)F)nc3ccccc32)nc(Nc2ccc(C(F)(F)F)cc2)n1 [Cpd 69, 6-[2-(difluoromethyl)-1H-benzimidazol-1-yl]-N^2-[4-(trifluoromethyl)phenyl]pyrimidine-2,4-diamine]",10 to 100 nM
8,"Nc1cc(-n2c(C(F)F)nc3ccc(F)cc32)nc(Nc2ccc(OC(F)F)cc2)n1 [Cpd 72, N^2-[4-(difluoromethoxy)phenyl]-6-[2-(difluoromethyl)-6-fluoro-1H-benzimidazol-1-yl]pyrimidine-2,4-diamine]",10 to 100 nM
9,"NC(=O)c1cccc(Nc2nccc(-c3cnc4ccccn34)n2)c1 [Cpd 75, 3-{[4-(imidazo[1,2-a]pyridin-3-yl)pyrimidin-2-yl]amino}benzamide]",100 to 3000 nM
10,"CCc1nc2cc(F)c(F)cc2n1-c1cc(N)nc(Nc2ccc(OC(F)F)cc2)n1 [Cpd 76, N^2-[4-(difluoromethoxy)phenyl]-6-(2-ethyl-5,6-difluoro-1H-benzimidazol-1-yl)pyrimidine-2,4-diamine]",10 to 100 nM
11,"Cc1nc2cc(F)c(F)cc2n1-c1cc(N)nc(Nc2ccc(OC(F)F)cc2)n1 [Cpd 77, N^2-[4-(difluoromethoxy)phenyl]-6-(5,6-difluoro-2-methyl-1H-benzimidazol-1-yl)pyrimidine-2,4-diamine]",10 to 100 nM
12,"Cc1nn2ccccc2c1-c1cc(N)nc(Nc2ccc(C(F)(F)F)cc2)n1 [Cpd 82, 6-(2-methylpyrazolo[1,5-a]pyridin-3-yl)-N^2-[4-(trifluoromethyl)phenyl]pyrimidine-2,4-diamine]",10 to 100 nM
13,"Cc1nc2ccccc2n1-c1cc(N)nc(Nc2ccc(OC(F)F)cc2)n1 [Cpd 83, N^2-[4-(difluoromethoxy)phenyl]-6-(2-methyl-1H-benzimidazol-1-yl)pyrimidine-2,4-diamine]",10 to 100 nM
14,"CCc1nc2ccccc2n1-c1cc(N)nc(Nc2ccc(OC(F)F)cc2)n1 [Cpd 84, N^2-[4-(difluoromethoxy)phenyl]-6-(2-ethyl-1H-benzimidazol-1-yl)pyrimidine-2,4-diamine]",10 to 100 nM
15,"Nc1cc(-n2c(C3CC3)nc3ccccc32)nc(Nc2ccc(OC(F)F)cc2)n1 [Cpd 85, 6-(2-cyclopropyl-1H-benzimidazol-1-yl)-N^2-[4-(difluoromethoxy)phenyl]pyrimidine-2,4-diamine]",10 to 100 nM
16,"Nc1cc(-n2c(C3CC3)nc3cc(Cl)ccc32)nc(Nc2ccc(C(F)(F)F)cc2)n1 [Cpd 86, 6-(5-chloro-2-cyclopropyl-1H-benzimidazol-1-yl)-N^2-[4-(trifluoromethyl)phenyl]pyrimidine-2,4-diamine]",100 to 3000 nM

# Further lines, results first:
row,EC50,SMILES
1,10 to 100 nM,"Nc1cc(-n2c(C3CC3)nc3ccc(Cl)cc32)nc(Nc2ccc(C(F)(F)F)cc2)n1 [Cpd 87, 6-(6-chloro-2-cyclopropyl-1H-benzimidazol-1-yl)-N^2-[4-(trifluoromethyl)phenyl]pyrimidine-2,4-diamine]"
2,10 to 100 nM,"CCc1nn2ccccc2c1-c1cc(N)nc(Nc2ccc(C(F)(F)F)cc2)n1 [Cpd 90, 6-(2-ethylpyrazolo[1,5-a]pyridin-3-yl)-N^2-[4-(trifluoromethyl)phenyl]pyrimidine-2,4-diamine]"
3,10 to 100 nM,"CCc1nn2ccccc2c1-c1cc(N)nc(Nc2ccc(OC(F)F)cc2)n1 [Cpd 91, N^2-[4-(difluoromethoxy)phenyl]-6-(2-ethylpyrazolo[1,5-a]pyridin-3-yl)pyrimidine-2,4-diamine]"
4,10 to 100 nM,"Nc1cc(-n2c(C3CC3)nc3cc(Cl)ccc32)nc(Nc2ccc(OC(F)F)cc2)n1 [Cpd 92, 6-(5-chloro-2-cyclopropyl-1H-benzimidazol-1-yl)-N^2-[4-(difluoromethoxy)phenyl]pyrimidine-2,4-diamine]"
5,10 to 100 nM,"Nc1cc(-n2c(C3CC3)nc3ccc(Cl)cc32)nc(Nc2ccc(OC(F)F)cc2)n1 [Cpd 93, 6-(6-chloro-2-cyclopropyl-1H-benzimidazol-1-yl)-N^2-[4-(difluoromethoxy)phenyl]pyrimidine-2,4-diamine]"
6,10 to 100 nM,"Cc1nc2ccccc2n1-c1nc(Nc2ccc(OC(F)F)cc2)nc(N)c1F [Cpd 94, N^2-[4-(difluoromethoxy)phenyl]-5-fluoro-6-(2-methyl-1H-benzimidazol-1-yl)pyrimidine-2,4-diamine]"
7,10 to 100 nM,"CCc1nc2ccccc2n1-c1cc(N)nc(Nc2ccc(C(F)(F)F)nc2)n1 [Cpd 95, 6-(2-ethyl-1H-benzimidazol-1-yl)-N^2-[6-(trifluoromethyl)pyridin-3-yl]pyrimidine-2,4-diamine]"
8,100 to 3000 nM,"CCc1nc2cc(Cl)ccc2n1-c1cc(N)nc(Nc2ccc(C(F)(F)F)cc2)n1 [Cpd 96, 6-(5-chloro-2-ethyl-1H-benzimidazol-1-yl)-N^2-[4-(trifluoromethyl)phenyl]pyrimidine-2,4-diamine]"
9,10 to 100 nM,"CCc1nc2ccc(Cl)cc2n1-c1cc(N)nc(Nc2ccc(C(F)(F)F)cc2)n1 [Cpd 97, 6-(6-chloro-2-ethyl-1H-benzimidazol-1-yl)-N^2-[4-(trifluoromethyl)phenyl]pyrimidine-2,4-diamine]"
10,10 to 100 nM,"Nc1cc(-c2c(C(F)(F)F)nn3ccccc23)nc(Nc2ccc(C(F)(F)F)cc2)n1 [Cpd 98, N^2-[4-(trifluoromethyl)phenyl]-6-[2-(trifluoromethyl)pyrazolo[1,5-a]pyridin-3-yl]pyrimidine-2,4-diamine]"
11,1 to 10 nM,"Cc1nc2ncc(F)cc2n1-c1cc(N)nc(Nc2ccc(C(F)(F)F)cc2)n1 [Cpd 100, 6-(6-fluoro-2-methyl-1H-imidazo[4,5-b]pyridin-1-yl)-N^2-[4-(trifluoromethyl)phenyl]pyrimidine-2,4-diamine]"
12,1 to 10 nM,"Cc1nc2ncc(F)cc2n1-c1cc(N)nc(Nc2ccc(OC(F)F)cc2)n1 [Cpd 101, N^2-[4-(difluoromethoxy)phenyl]-6-(6-fluoro-2-methyl-1H-imidazo[4,5-b]pyridin-1-yl)pyrimidine-2,4-diamine]"
13,10 to 100 nM,"Cc1nc2cc(F)ccc2n1-c1cc(N)nc(Nc2ccc(C(F)(F)F)cc2)n1 [Cpd 102, 6-(5-fluoro-2-methyl-1H-benzimidazol-1-yl)-N^2-[4-(trifluoromethyl)phenyl]pyrimidine-2,4-diamine]"
